Results: US8026247B2, “Bicyclic amides as kinase inhibitors” (Novartis AG, priority 2004, dated 2011)

SMILES | melting point
CNc1cc(Oc2ccc3c(c2)OCCN3C(=O)Nc2ccc(C)c(C(F)(F)F)c2)ncn1 [Example 8, 7-(6-Methylamino-pyrimidin-4-yloxy)-2,3-dihydro-benzo[1,4]oxazine-4-carboxylic acid (4-methyl-3-trifluoromethyl-phenyl)-amide] | 180 to 182 °C
Nc1nccc(Oc2ccc3c(c2)OCCN3C(=O)Nc2cccc(C(F)(F)F)c2)n1 [Example 10, 7-(2-Amino-pyrimidin-4-yloxy)-2,3-dihydro-benzo[1,4]oxazine-4-carboxylic acid (3-trifluoromethyl-phenyl)-amide] | 161 to 163 °C
Nc1nc(Cl)cc(Oc2ccc3c(C(=O)Nc4cccc(C(F)(F)F)c4)cccc3c2)n1 [Example 13, 6-(2-Amino-6-chloro-pyrimidin-4-yloxy)-naphthalene-1-carboxylic acid (3-trifluoromethyl-phenyl)-amide] | 234 to 236 °C
COC(=O)Nc1nccc(Oc2ccc3c(C(=O)Nc4cccc(C(F)(F)F)c4)cccc3c2)n1 [Example 19, 6-(2-Methoxycarbonylamino-pyrimidin-4-yloxy)-naphthalene-1-carboxylic acid (3-trifluoromethyl-phenyl)-amide] | 199 to 200 °C
Nc1cc(Oc2ccc3c(C(=O)Nc4cccc(C(F)(F)F)c4)cccc3c2)ncn1 [Example 26, 6-(6-Amino-pyrimidin-4-yloxy)-naphthalene-1-carboxylic acid (3-trifluoromethyl-phenyl)-amide] | 243 to 244 °C
CNc1cc(Oc2ccc3c(C(=O)Nc4ccc(N5CCOCC5)c(C(F)(F)F)c4)cccc3c2)ncn1 [Example 40, 6-(6-Methylamino-pyrimidin-4-yloxy)-naphthalene-1-carboxylic acid (4-morpholin-4-yl-3-trifluoromethyl-phenyl)-amide] | 156 to 157 °C
CC(C)NC(=O)c1cc(Oc2ccc3c(C(=O)Nc4cccc(C(F)(F)F)c4)cccc3c2)ncn1 [Example 51, 6-[5-(3-Trifluoromethyl-phenylcarbamoyl)-naphthalen-2-yloxy]-pyrimidine-4-carboxylic acid isopropylamide] | 205 to 208 °C
CNCc1cc(Oc2ccc3c(C(=O)Nc4cccc(C(F)(F)F)c4)cccc3c2)ncn1 [Example 54, 6-(6-Methylaminomethyl-pyrimidin-4-yloxy)-naphthalene-1-carboxylic acid (3-trifluoromethyl-phenyl)-amide] | 141 to 143 °C
CN(C)Cc1cc(Oc2ccc3c(C(=O)Nc4cccc(C(F)(F)F)c4)cccc3c2)ncn1 [Example 55, 6-(6-Dimethylaminomethyl-pyrimidin-4-yloxy)-naphthalene-1-carboxylic acid (3-trifluoromethyl-phenyl)-amide] | 180 to 181 °C
Nc1cc(Sc2ccc3c(C(=O)Nc4cccc(C(F)(F)F)c4)cccc3c2)ncn1 [Example 58, 6-(6-Amino-pyrimidin-4-ylsulfanyl)-naphthalene-1-carboxylic acid (3-trifluoromethyl-phenyl)-amide] | 205 °C
Nc1cc(Sc2ccc3c(C(=O)Nc4cccc(OC(F)(F)F)c4)cccc3c2)ncn1 [Example 61, 6-(6-Amino-pyrimidin-4-ylsulfanyl)-naphthalene-1-carboxylic acid (3-trifluoromethoxy-phenyl)-amide] | 197 to 199 °C
NC(=O)c1cc(Oc2ccc3c(C(=O)Nc4cccc(C(F)(F)F)c4)cccc3c2)ccn1 [Example 66, 4-[5-(3-Trifluoromethyl-phenylcarbamoyl)-naphthalen-2-yloxy]-pyridine-2-carboxylic acid amide] | 117 to 120 °C
Nc1cc(Oc2ccc3c(C(=O)Nc4cccc(C(F)(F)F)c4)cccc3c2)ccn1 [Example 68, 6-(2-Amino-pyridin-4-yloxy)-naphthalene-1-carboxylic acid (3-trifluoromethyl-phenyl)-amide] | 222 to 224 °C
Nc1cc(C#Cc2ccc3c(C(=O)Nc4cccc(C(F)(F)F)c4)cccc3c2)ncn1 [Example 71, 6-(6-Amino-pyrimidin-4-ylethynyl)-naphthalene-1-carboxylic acid (3-trifluoromethyl-phenyl)-amide] | 217 to 220 °C
CC(C)(C)c1cc(NC(=O)c2cncc3cc(Oc4cc(N)ncn4)ccc23)n(-c2ccc(F)cc2)n1 [Example 94, 7-(6-Amino-pyrimidin-4-yloxy)-isoquinoline-4-carboxylic acid [5-tert-butyl-2-(4-fluoro-phenyl)-2H-pyrazol-3-yl]-amide] | 124 to 126 °C

Further lines, results first:

melting point | SMILES
180 °C | CNc1cc(Oc2ccc3c(c2)OCCN3C(=O)Nc2cccc(C(F)(F)F)c2)ncn1 [Example 9, 7-(6-Methylamino-pyrimidin-4-yloxy)-2,3-dihydro-benzo[1,4]oxazine-4-carboxylic acid (3-trifluoromethyl-phenyl)-amide]
216 to 217 °C | CC(=O)Nc1nccc(Oc2ccc3c(C(=O)Nc4cccc(C(F)(F)F)c4)cccc3c2)n1 [Example 18, 6-(2-Acetylamino-pyrimidin-4-yloxy)-naphthalene-1-carboxylic acid (3-trifluoromethyl-phenyl)-amide]
224 to 225 °C | Nc1cc(Oc2ccc3c(C(=O)Nc4ccc(F)c(C(F)(F)F)c4)cccc3c2)ncn1 [Example 25, 6-(6-Amino-pyrimidin-4-yloxy)-naphthalene-1-carboxylic acid (4-fluoro-3-trifluoromethyl-phenyl)-amide]
167 °C | N#Cc1cc(Oc2ccc3c(C(=O)Nc4cccc(C(F)(F)F)c4)cccc3c2)ncn1 [Example 43, 6-(6-Cyano-pyrimidin-4-yloxy)-naphthalene-1-carboxylic acid (3-trifluoromethyl-phenyl)-amide]
178 to 181 °C | O=C(Nc1cccc(C(F)(F)F)c1)c1cccc2cc(Oc3cc(CCl)ncn3)ccc12 [Example 53, 6-(6-Chloromethyl-pyrimidin-4-yloxy)-naphthalene-1-carboxylic acid (3-trifluoromethyl-phenyl)-amide]
221 °C | Nc1cc(Sc2ccc3c(C(=O)Nc4ccc(F)c(C(F)(F)F)c4)cccc3c2)ncn1 [Example 57, 6-(6-Amino-pyrimidin-4-ylsulfanyl)-naphthalene-1-carboxylic acid (4-fluoro-3-trifluoromethyl-phenyl)-amide]
229 to 231 °C | Nc1cc(S(=O)(=O)c2ccc3c(C(=O)Nc4cccc(C(F)(F)F)c4)cccc3c2)ncn1 [Example 60, 6-(6-Amino-pyrimidine-4-sulfonyl)-naphthalene-1-carboxylic acid (3-trifluoromethyl-phenyl)-amide]
128 to 130 °C | CCCCOC(=O)c1cc(Oc2ccc3c(C(=O)Nc4cccc(C(F)(F)F)c4)cccc3c2)ccn1 [Example 64, 4-[5-(3-Trifluoromethyl-phenylcarbamoyl)-naphthalen-2-yloxy]-pyridine-2-carboxylic acid butyl ester]
175 to 177 °C | CNC(=O)c1cc(Oc2ccc3c(C(=O)Nc4cccc(C(F)(F)F)c4)cccc3c2)ccn1 [Example 65, 4-[5-(3-Trifluoromethyl-phenylcarbamoyl)-naphthalen-2-yloxy]-pyridine-2-carboxylic acid methylamide]
80 to 82 °C | CN(C)CCNC(=O)c1cc(Oc2ccc3c(C(=O)Nc4cccc(C(F)(F)F)c4)cccc3c2)ccn1 [Example 67, 4-[5-(3-Trifluoromethyl-phenylcarbamoyl)-naphthalen-2-yloxy]-pyridine-2-carboxylic acid (2-dimethylamino-ethyl)-amide]
230 to 232 °C | COC(=O)Nc1cc(Oc2ccc3c(C(=O)Nc4cccc(C(F)(F)F)c4)cccc3c2)ccn1 [Example 69, {4-[5-(3-Trifluoromethyl-phenylcarbamoyl)-naphthalen-2-yloxy]-pyridin-2-yl}-carbamic acid methyl ester]
225 to 227 °C | Nc1nccc(CCc2ccc3c(C(=O)Nc4cccc(C(F)(F)F)c4)cccc3c2)n1 [Example 70, 6-[2-(2-Amino-pyrimidin-4-yl)-ethyl]-naphthalene-1-carboxylic acid (3-trifluoromethyl-phenyl)-amide]
131 to 133 °C | CC(C)c1ccc(-n2nc(C(C)(C)C)cc2NC(=O)c2cncc3cc(Oc4cc(N)ncn4)ccc23)cc1 [Example 93, 7-(6-Amino-pyrimidin-4-yloxy)-isoquinoline-4-carboxylic acid [5-tert-butyl-2-(4-isopropyl-phenyl)-2H-pyrazol-3-yl]-amide]
255 to 257 °C | CNc1cc(Oc2ccc3c(C(=O)Nc4ccc(F)c(C(F)(F)F)c4)cncc3c2)ncn1 [Example 95, 7-(6-Methylamino-pyrimidin-4-yloxy)-isoquinoline-4-carboxylic acid (4-fluoro-3-trifluoromethyl-phenyl)-amide]
205 to 208 °C | CNc1cc(Oc2ccc3c(C(=O)Nc4cccc(C(F)(F)F)c4)cncc3c2)ncn1 [Example 96, 7-(6-Methylamino-pyrimidin-4-yloxy)-isoquinoline-4-carboxylic acid (3-trifluoromethyl-phenyl)-amide]
